# Data taken from ChEMBL document CHEMBL1135457 (J Med Chem, 2002).
# What was measured:
# Androgen receptor = biological target: T1, Androgen receptor (Homo sapiens, UniProt P10275); experiment: Displacement of [3H]DHT from human Androgen receptor
# T1 sequence (P10275 whole entry): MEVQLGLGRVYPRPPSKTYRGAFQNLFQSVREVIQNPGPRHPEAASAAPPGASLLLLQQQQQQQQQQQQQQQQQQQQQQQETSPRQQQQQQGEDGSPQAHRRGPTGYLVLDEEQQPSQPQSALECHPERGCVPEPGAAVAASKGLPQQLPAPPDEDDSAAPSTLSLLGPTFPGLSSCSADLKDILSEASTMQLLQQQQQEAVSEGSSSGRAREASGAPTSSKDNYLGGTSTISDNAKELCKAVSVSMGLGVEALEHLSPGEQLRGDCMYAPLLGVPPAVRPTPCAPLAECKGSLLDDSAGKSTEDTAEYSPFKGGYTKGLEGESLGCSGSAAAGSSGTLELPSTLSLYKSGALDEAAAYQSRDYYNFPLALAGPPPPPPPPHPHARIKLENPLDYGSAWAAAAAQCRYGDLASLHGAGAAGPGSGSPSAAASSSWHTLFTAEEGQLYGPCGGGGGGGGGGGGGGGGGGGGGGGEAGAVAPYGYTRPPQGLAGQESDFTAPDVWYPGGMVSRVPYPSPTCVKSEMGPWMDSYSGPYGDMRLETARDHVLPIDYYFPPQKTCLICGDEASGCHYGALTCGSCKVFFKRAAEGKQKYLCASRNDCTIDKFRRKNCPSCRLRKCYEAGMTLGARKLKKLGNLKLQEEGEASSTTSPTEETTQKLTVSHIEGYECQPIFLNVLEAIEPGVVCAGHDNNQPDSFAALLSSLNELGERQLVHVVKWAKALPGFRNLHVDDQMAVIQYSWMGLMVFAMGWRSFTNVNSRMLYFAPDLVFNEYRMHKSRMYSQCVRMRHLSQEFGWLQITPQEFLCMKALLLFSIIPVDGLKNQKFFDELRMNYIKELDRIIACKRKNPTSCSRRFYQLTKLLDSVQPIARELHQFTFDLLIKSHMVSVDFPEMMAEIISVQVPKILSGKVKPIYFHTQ
# Estrogen receptor beta [1] = biological target: T2, Estrogen receptor beta (Homo sapiens, UniProt Q92731); experiment: Displacement of radioligand from human ER beta
# Glucocorticoid receptor = biological target: T3, Glucocorticoid receptor (Homo sapiens, UniProt P04150); experiment: Displacement of 10 nM [3H]dexamethasone from human Glucocorticoid receptor
# T3 sequence (P04150 whole entry): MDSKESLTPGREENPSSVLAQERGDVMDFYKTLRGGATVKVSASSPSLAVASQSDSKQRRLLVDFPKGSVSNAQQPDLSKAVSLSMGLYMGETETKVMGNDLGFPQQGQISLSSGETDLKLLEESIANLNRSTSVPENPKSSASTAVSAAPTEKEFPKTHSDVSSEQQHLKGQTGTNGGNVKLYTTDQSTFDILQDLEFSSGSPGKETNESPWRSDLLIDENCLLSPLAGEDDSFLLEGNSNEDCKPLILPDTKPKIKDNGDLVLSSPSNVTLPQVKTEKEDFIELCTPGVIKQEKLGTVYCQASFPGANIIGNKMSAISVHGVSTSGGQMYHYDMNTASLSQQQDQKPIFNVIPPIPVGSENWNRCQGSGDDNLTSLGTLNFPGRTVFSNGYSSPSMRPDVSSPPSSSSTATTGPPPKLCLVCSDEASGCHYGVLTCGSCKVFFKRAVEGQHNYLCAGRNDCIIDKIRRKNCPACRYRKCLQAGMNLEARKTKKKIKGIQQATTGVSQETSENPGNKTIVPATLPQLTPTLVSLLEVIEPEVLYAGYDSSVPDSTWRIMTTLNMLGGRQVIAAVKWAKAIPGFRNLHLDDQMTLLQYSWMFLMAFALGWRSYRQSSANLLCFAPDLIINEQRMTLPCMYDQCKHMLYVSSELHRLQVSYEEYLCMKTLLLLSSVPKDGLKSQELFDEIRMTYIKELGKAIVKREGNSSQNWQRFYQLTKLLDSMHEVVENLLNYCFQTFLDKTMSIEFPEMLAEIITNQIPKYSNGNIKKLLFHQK
# Estrogen receptor = biological target: T4, Estrogen receptor (Homo sapiens, UniProt P03372); experiment: Displacement of radioligand from human Estrogen receptor alpha
# T4 sequence (P03372 whole entry): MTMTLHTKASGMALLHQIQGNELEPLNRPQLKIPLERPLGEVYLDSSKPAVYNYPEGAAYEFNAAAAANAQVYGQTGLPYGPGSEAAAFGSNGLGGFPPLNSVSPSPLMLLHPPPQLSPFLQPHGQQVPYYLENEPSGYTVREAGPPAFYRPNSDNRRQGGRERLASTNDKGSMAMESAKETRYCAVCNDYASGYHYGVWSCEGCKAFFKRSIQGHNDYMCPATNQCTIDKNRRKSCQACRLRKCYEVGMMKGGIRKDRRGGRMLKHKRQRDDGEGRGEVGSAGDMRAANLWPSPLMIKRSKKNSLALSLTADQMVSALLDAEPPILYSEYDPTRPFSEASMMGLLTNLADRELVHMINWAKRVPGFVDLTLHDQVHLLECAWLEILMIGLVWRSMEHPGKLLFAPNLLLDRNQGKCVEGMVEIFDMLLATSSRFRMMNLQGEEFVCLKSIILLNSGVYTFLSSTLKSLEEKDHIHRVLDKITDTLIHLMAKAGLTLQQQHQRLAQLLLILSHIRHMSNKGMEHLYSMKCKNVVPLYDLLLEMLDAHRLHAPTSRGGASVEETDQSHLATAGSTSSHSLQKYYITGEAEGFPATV
# Progesterone receptor = biological target: T5, Progesterone receptor (Homo sapiens, UniProt P06401); experiment: Displacement of radioligand from human Progesterone receptor
# T5 sequence (P06401 whole entry): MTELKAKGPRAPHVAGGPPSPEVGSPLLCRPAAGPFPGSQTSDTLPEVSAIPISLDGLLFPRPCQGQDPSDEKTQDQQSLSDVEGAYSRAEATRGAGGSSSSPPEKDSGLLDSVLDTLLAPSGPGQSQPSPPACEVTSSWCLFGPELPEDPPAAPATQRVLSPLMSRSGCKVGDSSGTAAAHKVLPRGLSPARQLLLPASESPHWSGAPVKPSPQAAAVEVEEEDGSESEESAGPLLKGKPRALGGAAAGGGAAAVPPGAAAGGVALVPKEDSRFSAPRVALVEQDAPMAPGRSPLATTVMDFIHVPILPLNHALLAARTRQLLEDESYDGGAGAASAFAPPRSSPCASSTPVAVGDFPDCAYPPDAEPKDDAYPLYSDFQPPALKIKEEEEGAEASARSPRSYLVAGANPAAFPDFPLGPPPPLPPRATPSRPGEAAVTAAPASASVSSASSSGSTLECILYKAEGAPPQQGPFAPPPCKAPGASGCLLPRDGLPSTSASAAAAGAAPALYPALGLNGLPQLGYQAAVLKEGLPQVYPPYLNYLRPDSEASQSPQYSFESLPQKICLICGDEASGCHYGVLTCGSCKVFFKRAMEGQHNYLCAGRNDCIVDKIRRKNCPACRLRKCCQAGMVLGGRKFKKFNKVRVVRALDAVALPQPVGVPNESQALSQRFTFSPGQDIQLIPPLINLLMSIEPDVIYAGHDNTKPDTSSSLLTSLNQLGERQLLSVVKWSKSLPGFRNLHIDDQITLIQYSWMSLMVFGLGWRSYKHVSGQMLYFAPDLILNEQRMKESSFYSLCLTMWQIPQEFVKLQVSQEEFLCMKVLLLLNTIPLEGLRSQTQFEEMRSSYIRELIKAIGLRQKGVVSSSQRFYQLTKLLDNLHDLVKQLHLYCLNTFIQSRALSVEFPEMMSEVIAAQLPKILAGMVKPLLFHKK
# Estrogen receptor beta [2] = biological target: T2, Estrogen receptor beta; experiment: Displacement of radioligand from human Estrogen receptor beta, percent inhibition at 10 uM
# [3] = biological target: T6, Estrogen receptor (Homo sapiens) (UniProt P03372); experiment: Displacement of radioligand from human Estrogen receptor alpha, percent inhibition at 10 uM
# T6 sequence (whole entry): T4 sequence (P03372 whole entry)
# [4] = biological target: T7, Mineralocorticoid receptor (Homo sapiens) (UniProt P08235); experiment: Antagonist activity against human mineralocorticoid receptor as displacement of radioligand, percent […]; assay type: functional
# T7 sequence (whole entry): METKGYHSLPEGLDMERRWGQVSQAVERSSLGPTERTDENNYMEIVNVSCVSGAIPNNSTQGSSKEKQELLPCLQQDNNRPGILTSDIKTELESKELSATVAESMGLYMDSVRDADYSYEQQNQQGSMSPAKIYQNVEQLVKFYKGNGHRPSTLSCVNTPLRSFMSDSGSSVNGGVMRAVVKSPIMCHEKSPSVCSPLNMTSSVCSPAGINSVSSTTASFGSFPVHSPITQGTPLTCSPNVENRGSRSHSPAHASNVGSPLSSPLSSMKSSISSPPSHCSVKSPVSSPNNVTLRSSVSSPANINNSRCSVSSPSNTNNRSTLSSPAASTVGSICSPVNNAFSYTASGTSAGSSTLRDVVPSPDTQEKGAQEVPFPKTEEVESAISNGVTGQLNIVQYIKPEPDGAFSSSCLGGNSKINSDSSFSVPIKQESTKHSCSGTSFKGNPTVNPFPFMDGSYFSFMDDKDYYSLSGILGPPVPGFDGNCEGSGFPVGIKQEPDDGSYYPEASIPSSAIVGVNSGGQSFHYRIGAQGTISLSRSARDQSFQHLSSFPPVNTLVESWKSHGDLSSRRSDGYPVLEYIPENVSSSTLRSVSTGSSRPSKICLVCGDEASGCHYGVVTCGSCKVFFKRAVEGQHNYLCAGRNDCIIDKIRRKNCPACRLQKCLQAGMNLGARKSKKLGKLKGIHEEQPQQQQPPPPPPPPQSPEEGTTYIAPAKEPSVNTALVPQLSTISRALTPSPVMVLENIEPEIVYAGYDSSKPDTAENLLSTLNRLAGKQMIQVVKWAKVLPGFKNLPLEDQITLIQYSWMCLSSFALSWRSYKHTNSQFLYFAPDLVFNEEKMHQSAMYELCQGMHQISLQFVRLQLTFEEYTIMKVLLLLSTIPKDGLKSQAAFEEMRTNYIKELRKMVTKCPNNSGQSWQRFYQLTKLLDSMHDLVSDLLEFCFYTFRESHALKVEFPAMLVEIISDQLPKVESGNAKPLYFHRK
# [5] = biological target: T8, Glucocorticoid receptor (Homo sapiens) (UniProt P04150)
# T8 sequence (whole entry): T3 sequence (P04150 whole entry)
# Description: (§1) Antagonist activity as displacement of 10 nM [3H]dexamethasone from human Glucocorticoid receptor
# [6] = biological target: T7, Mineralocorticoid receptor (Homo sapiens)
# [7] = biological target: T9, Progesterone receptor (Homo sapiens) (UniProt P06401); conditions: 1 uM
# T9 sequence (whole entry): T5 sequence (P06401 whole entry)
# Description: Antagonist activity against human Progesterone receptor as displacement of radioligand, percent inhibition at 1 uM
# [8] = biological target: T9, Progesterone receptor (Homo sapiens)
# Description: (§2) Antagonist activity against human Progesterone receptor by displacement of radioligand
# [9] = biological target: T7, Mineralocorticoid receptor (Homo sapiens); remark: listed apart in the source
# [10] = biological target: T8, Glucocorticoid receptor (Homo sapiens); remark: listed apart in the source
# Description: as §1
# [11] = biological target: T9, Progesterone receptor (Homo sapiens); remark: listed apart in the source
# Description: as §2
# T2 sequence (Q92731 whole entry): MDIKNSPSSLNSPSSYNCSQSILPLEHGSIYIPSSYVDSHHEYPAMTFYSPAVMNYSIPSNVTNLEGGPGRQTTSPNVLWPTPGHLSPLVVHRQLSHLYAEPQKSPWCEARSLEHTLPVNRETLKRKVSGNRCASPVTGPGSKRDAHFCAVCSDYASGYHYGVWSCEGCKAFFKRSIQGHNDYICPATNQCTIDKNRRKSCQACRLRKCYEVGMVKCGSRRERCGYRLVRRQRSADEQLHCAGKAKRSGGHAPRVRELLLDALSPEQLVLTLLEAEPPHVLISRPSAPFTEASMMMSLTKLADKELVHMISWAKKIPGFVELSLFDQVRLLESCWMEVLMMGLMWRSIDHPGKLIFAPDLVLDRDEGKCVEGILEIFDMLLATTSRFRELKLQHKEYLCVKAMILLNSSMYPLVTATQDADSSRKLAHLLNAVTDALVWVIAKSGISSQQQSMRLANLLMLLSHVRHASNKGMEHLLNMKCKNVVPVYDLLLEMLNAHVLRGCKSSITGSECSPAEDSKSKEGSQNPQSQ
Ki (Androgen receptor) [µM],Ki (Glucocorticoid receptor) [µM],Ki (Progesterone receptor) [µM],inhibition (Estrogen receptor beta [2]) [%],inhibition [3] [%],Kif [5] [nM],Kif [8] [nM],Kif [9] [nM],SMILES,also measured
0.054,> 10,> 10,,,,,,"COc1ccc2c(c1)CCC1=CC(=O)CCC12Cc1ccccc1 (single isomer, unassigned; form 2) [listing 1 of 2 here]",Ki (Estrogen receptor beta [1]): > 10 µM; Ki (Estrogen receptor): > 10 µM
> 10,> 10,> 10,,,,,,"O=C1C=C2CCc3cc(O)ccc3C2(Cc2ccccc2)CC1 (single isomer, unassigned; form 1) [listing 1 of 2 here]",
,,,92,44,2,11.8,,CC#C[C@]1(O)CC[C@H]2[C@@H]3CCC4=CC(=O)CCC4=C3[C@@H](c3ccc(N(C)C)cc3)C[C@@]21C,inhibition [4]: 69.7%; Kif [6]: < 10 nM; inhibition [7]: 100%
0.69,> 10,> 10,,,,,,"COc1ccc2c(c1)CCC1=CC(=O)CCC12Cc1ccccc1 (single isomer, unassigned; form 1) [listing 1 of 2 here]",Ki (Estrogen receptor beta [1]): > 10 µM
,,,,27,> 1000,> 1000,> 1000,"COc1ccc2c(c1)CCC1=CC(=O)CCC12Cc1ccccc1 (single isomer, unassigned; form 1) [listing 2 of 2 here]",
,,,24,36,,> 1000,> 1000,"O=C1C=C2CCc3cc(O)ccc3C2(Cc2ccccc2)CC1 (single isomer, unassigned; form 1) [listing 2 of 2 here]",Kif [10]: > 1000 nM
,,,39,70,> 1000,> 1000,> 1000,"O=C1C=C2CCc3cc(O)ccc3C2(Cc2ccccc2)CC1 (single isomer, unassigned; form 2) [listing 1 of 2 here]",
0.18,0.157,> 10,,,,,,"O=C1C=C2CCc3cc(O)ccc3C2(Cc2ccccc2)CC1 (single isomer, unassigned; form 2) [listing 2 of 2 here]",
,,,,,> 1000,,,"COc1ccc2c(c1)CCC1=CC(=O)CCC12Cc1ccccc1 (single isomer, unassigned; form 2) [listing 2 of 2 here]",Kif [6]: > 1000 nM; Kif [11]: > 1000 nM
